We go through 36 compounds from US20090099158A1, “TETRAHYDROISOQUINOLINE COMPOUNDS AS MODULATORS OF THE HISTAMINE H3 RECEPTOR” (priority 2007, published 2009).

In the assay the target is T1, cloned human H3 receptors (Homo sapiens, UniProt Q9Y5N1).
T1 construct: expressed in transfected cells; host or cells: SK-N-MC cells
T1 sequence (Q9Y5N1 whole entry): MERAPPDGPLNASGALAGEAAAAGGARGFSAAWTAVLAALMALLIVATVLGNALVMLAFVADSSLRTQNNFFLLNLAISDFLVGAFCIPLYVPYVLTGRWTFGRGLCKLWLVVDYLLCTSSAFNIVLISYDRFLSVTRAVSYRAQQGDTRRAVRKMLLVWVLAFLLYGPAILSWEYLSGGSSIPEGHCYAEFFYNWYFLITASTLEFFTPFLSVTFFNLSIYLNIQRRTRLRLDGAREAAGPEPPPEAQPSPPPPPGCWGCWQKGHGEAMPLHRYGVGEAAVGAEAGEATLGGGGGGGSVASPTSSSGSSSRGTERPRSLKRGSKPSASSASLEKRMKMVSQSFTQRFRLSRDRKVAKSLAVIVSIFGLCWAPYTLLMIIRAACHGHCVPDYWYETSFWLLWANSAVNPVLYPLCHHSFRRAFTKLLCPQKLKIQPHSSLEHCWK
Put plainly: H3 Receptor Binding (Human). To be noted: cloned human H3 receptors stably expressed in SK-N-MC cells; average of the results obtained. As for the experimental part: Binding of compounds to the cloned human H3 receptors, stably expressed in SK-N-MC cells, was performed as described by Barbier, A. J. et al. (Br. J. Pharmacol. 2004, 143(5), 649-661). Data for compounds tested in this assay are presented in Table 1 as an average of the results obtained.
On to `O=C(c1ccc2c(c1)CCN(C(=O)C1CCCCC1)C2)N1CCN(CC2CCCO2)CC1` (stereo not drawn) [Example 151, Cyclohexyl-{6-[4-(tetrahydro-furan-2-ylmethyl)-piperazine-1-carbonyl]-3,4-dihydro-1H-isoquinolin-2-yl}-methanone], for which the inhibition constant (Ki) – broadly, the dissociation constant of the complex between target and ligand, obtained from inhibition or displacement – turned out to be 5200 nM.
In turn, `O=C(c1ccc2c(c1)CCN(C(=O)C1CCCCC1)C2)N1CCN2CCCCC2C1` (stereo not drawn) [Example 152, Cyclohexyl-[6-(octahydro-pyrido[1,2-a]pyrazine-2-carbonyl)-3,4-dihydro-1H-isoquinolin-2-yl]-methanone] came in with a Ki of 9 nM.
Consider `O=C(c1ccc2c(c1)CCN(C(=O)C1CCCCC1)C2)N1CCN2CCCC2C1` (stereo not drawn) [Example 153, Cyclohexyl-[6-(hexahydro-pyrrolo[1,2-a]pyrazine-2-carbonyl)-3,4-dihydro-1H-isoquinolin-2-yl]-methanone], for which the inhibition constant Ki worked out at 54 nM. Compared with the last compound, the Ki is about 6-fold higher.
As for `CN(C)C1CCN(C(=O)c2ccc3c(c2)CCN(C(=O)C2CCCCC2)C3)CC1` [Example 154, Cyclohexyl-[6-(4-dimethylamino-piperidine-1-carbonyl)-3,4-dihydro-1H-isoquinolin-2-yl]-methanone], the affinity, expressed as Ki, was 441 nM. Compared with the last compound, the Ki is about 8.2-fold higher.
In turn, `CN(C)[C@@H]1CCN(C(=O)c2ccc3c(c2)CCN(C(=O)C2CCCCC2)C3)C1` [Example 155, (R)-Cyclohexyl-[6-(3-dimethylamino-pyrrolidine-1-carbonyl)-3,4-dihydro-1H-isoquinolin-2-yl]-methanone] displayed a Ki of 650 nM.
`CN(C)[C@H]1CCN(C(=O)c2ccc3c(c2)CCN(C(=O)C2CCCCC2)C3)C1` [Example 156, (S)-Cyclohexyl-[6-(3-dimethylamino-pyrrolidine-1-carbonyl)-3,4-dihydro-1H-isoquinolin-2-yl]-methanone] had a Ki of 30 nM. Compared with the last compound, the Ki is about 22-fold lower.
On to `O=C(c1ccc2c(c1)CCN(C(=O)C1CCCCC1)C2)N1CCC(N2CCCCC2)CC1` [Example 157, [6-([1,4′]Bipiperidinyl-1′-carbonyl)-3,4-dihydro-1H-isoquinolin-2-yl]-cyclohexyl-methanone], for which the inhibition constant (Ki) worked out at 110 nM.
To `O=C(c1ccc2c(c1)CCN(C(=O)C1CCCCC1)C2)N1CCC(N2CCOCC2)CC1` [Example 158, Cyclohexyl-[6-(4-morpholin-4-yl-piperidine-1-carbonyl)-3,4-dihydro-1H-isoquinolin-2-yl]-methanone] belongs 4090 nM.
With `O=C(c1ccc2c(c1)CCN(C(=O)C1CCCCC1)C2)N1CCN(C2CCCC2)CC1` [Example 159, Cyclohexyl-[6-(4-cyclopentyl-piperazine-1-carbonyl)-3,4-dihydro-1H-isoquinolin-2-yl]-methanone], the inhibition constant (Ki) turned out to be 37 nM. Against the preceding compound, the Ki is about 110-fold lower.
To `O=C(c1ccc2c(c1)CCN(C(=O)C1CCCCC1)C2)N1CCN(C2CCCCC2)CC1` [Example 160, Cyclohexyl-[6-(4-cyclohexyl-piperazine-1-carbonyl)-3,4-dihydro-1H-isoquinolin-2-yl]-methanone] belongs 84 nM.
With `CN1CCC(N(C)C(=O)c2ccc3c(c2)CCN(C(=O)C2CCCCC2)C3)C1` (stereo not drawn) [Example 161, 2-Cyclohexanecarbonyl-1,2,3,4-tetrahydro-isoquinoline-6-carboxylic acid methyl-(1-methyl-pyrrolidin-3-yl)-amide], the Ki worked out at 421 nM.
In turn, `CC(C)N1CCCN(C(=O)c2ccc3c(c2)CCN(C(=O)C2CCCCC2)C3)CC1` [Example 162, Cyclohexyl-[6-(4-isopropyl-[1,4]diazepane-1-carbonyl)-3,4-dihydro-1H-isoquinolin-2-yl]-methanone] yielded a Ki of 4 nM.
Take `O=C(c1ccc2c(c1)CCN(C(=O)C1CCCCC1)C2)N1CC2CN(C3CCC3)CC2C1` (stereo not drawn) [Example 163, (5-Cyclobutyl-hexahydro-pyrrolo[3,4-c]pyrrol-2-yl)-(2-cyclohexanecarbonyl-1,2,3,4-tetrahydro-isoquinolin-6-yl)-methanone]: affinity was put at a Ki of 170 nM.
`O=C(C1CCCCC1)N1CCc2cc(C(=O)N3C[C@@H]4C[C@H]3CN4C3CCC3)ccc2C1` [Example 164, (1S,4S)-(5-Cyclobutyl-2,5-diaza-bicyclo[2.2.1]hept-2-yl)-(2-cyclohexanecarbonyl-1,2,3,4-tetrahydro-isoquinolin-6-yl)-methanone] showed a Ki of 1150 nM.
As to `O=C(c1ccc2c(c1)CCN(C(=O)C1CCCCC1)C2)N1CC2CCN(C3CCC3)C2C1` (stereo not drawn) [Example 165, (1-Cyclobutyl-hexahydro-pyrrolo[3,4-b]pyrrol-5-yl)-(2-cyclohexanecarbonyl-1,2,3,4-tetrahydro-isoquinolin-6-yl)-methanone], affinity was put at a Ki of 300 nM.
With `O=C(C1CCCCC1)N1CCc2cc(CN3CCCCC3)ccc2C1` [Example 166, Cyclohexyl-(6-piperidin-1-ylmethyl-3,4-dihydro-1H-isoquinolin-2-yl)-methanone], the affinity corresponds to a Ki of 45 nM.
The compound `O=C(C1CCCCC1)N1CCc2cc(CN3CCOCC3)ccc2C1` [Example 167, Cyclohexyl-(6-morpholin-4-ylmethyl-3,4-dihydro-1H-isoquinolin-2-yl)-methanone] came in with a Ki of 1390 nM. This Ki is about 31-fold higher than that of the compound before.
Take `O=C(C1CCCCC1)N1CCc2cc(CN3CCN4CCCCC4C3)ccc2C1` (stereo not drawn) [Example 168, Cyclohexyl-[6-(octahydro-pyrido[1,2-a]pyrazin-2-ylmethyl)-3,4-dihydro-1H-isoquinolin-2-yl]-methanone]: the affinity, expressed as Ki, was 13 nM.
As for `O=C(C1CCCCC1)N1CCc2cc(CN3CCC[C@H]3CN3CCCC3)ccc2C1` [Example 169, Cyclohexyl-[6-(2-pyrrolidin-1-ylmethyl-pyrrolidin-1-ylmethyl)-3,4-dihydro-1H-isoquinolin-2-yl]-methanone], the Ki is 269 nM.
`O=C(C1CCCCC1)N1CCc2cc(CN3CCN(C4CCC4)CC3)ccc2C1` [Example 170, [6-(4-Cyclobutyl-piperazin-1-ylmethyl)-3,4-dihydro-1H-isoquinolin-2-yl]-cyclohexyl-methanone] yielded a Ki of 860 nM.
Regarding `O=C(C1CCCCC1)N1CCc2cc(CN3CCCN(C4CCC4)CC3)ccc2C1` [Example 171, [6-(4-Cyclobutyl-[1,4]diazepan-1-ylmethyl)-3,4-dihydro-1H-isoquinolin-2-yl]-cyclohexyl-methanone], the affinity, expressed as Ki, was 23 nM.
Compound `O=C(c1ccc2c(c1)CCN(C1CCCC1)C2)N1CCOCC1` [Example 172, (2-Cyclopentyl-1,2,3,4-tetrahydro-isoquinolin-6-yl)-morpholin-4-yl-methanone] came in with an inhibition constant (Ki) of 2800 nM.
In turn, `CC(C)N1CCc2cc(C(=O)N3CCCCC3)ccc2C1` [Example 173, (2-Isopropyl-1,2,3,4-tetrahydro-isoquinolin-6-yl)-piperidin-1-yl-methanone] returned a Ki of 1800 nM.
Consider `CC(C)N1CCc2cc(C(=O)N3CCOCC3)ccc2C1` [Example 174, (2-Isopropyl-1,2,3,4-tetrahydro-isoquinolin-6-yl)-morpholin-4-yl-methanone], for which the inhibition constant (Ki) came out at 2140 nM.
Compound `CC(C)N1CCc2cc(C(=O)N3CCN4CCCCC4C3)ccc2C1` (stereo not drawn) [Example 175, (2-Isopropyl-1,2,3,4-tetrahydro-isoquinolin-6-yl)-(octahydro-pyrido[1,2-a]pyrazin-2-yl)-methanone] came in with a Ki of 2 nM.
In turn, `CC(C)N1CCc2cc(C(=O)N3CCC(C(C)(C)C)CC3)ccc2C1` [Example 176, (4-tert-Butyl-piperidin-1-yl)-(2-isopropyl-1,2,3,4-tetrahydro-isoquinolin-6-yl)-methanone] returned a Ki of 250 nM.
Take `CC(C)N1CCc2cc(C(=O)N3CCC(C(C)(C)O)CC3)ccc2C1` [Example 178, [4-(1-Hydroxy-1-methyl-ethyl)-piperidin-1-yl]-(2-isopropyl-1,2,3,4-tetrahydro-isoquinolin-6-yl)-methanone]: the affinity corresponds to a Ki of 3300 nM.
For `CCCN1CCc2cc(C(=O)N3CCOCC3)ccc2C1` [Example 180, Morpholin-4-yl-(2-propyl-1,2,3,4-tetrahydro-isoquinolin-6-yl)-methanone] the value was 9000 nM; for `CCCN1CCc2cc(C(=O)N3CCN4CCCCC4C3)ccc2C1` (stereo not drawn) [Example 181, (Octahydro-pyrido[1,2-a]pyrazin-2-yl)-(2-propyl-1,2,3,4-tetrahydro-isoquinolin-6-yl)-methanone], 2 nM; for `CCCN1CCc2cc(C(=O)N3CCC(C(C)(C)C)CC3)ccc2C1` [Example 182, (4-tert-Butyl-piperidin-1-yl)-(2-propyl-1,2,3,4-tetrahydro-isoquinolin-6-yl)-methanone], 340 nM.
On to `CCCN1CCc2cc(C(=O)N3CCCN(C4CCC4)CC3)ccc2C1` [Example 183, (4-Cyclobutyl-[1,4]diazepan-1-yl)-(2-propyl-1,2,3,4-tetrahydro-isoquinolin-6-yl)-methanone], for which the Ki came out at 1 nM.
`CCCN1CCc2cc(C(=O)N3CCC(C(C)(C)O)CC3)ccc2C1` [Example 184, [4-(1-Hydroxy-1-methyl-ethyl)-piperidin-1-yl]-(2-Propyl-1,2,3,4-tetrahydro-isoquinolin-6-yl)-methanone] showed an inhibition constant Ki of 4200 nM.
`O=C(c1ccc2c(c1)CCN(C1CCC1)C2)N1CCCCC1` [Example 185, (2-Cyclobutyl-1,2,3,4-tetrahydro-isoquinolin-6-yl)-piperidin-1-yl-methanone]: the inhibition constant Ki turned out to be 2100 nM.
In the case of `O=C(c1ccc2c(c1)CCN(C1CCC1)C2)N1CCOCC1` [Example 186, (2-Cyclobutyl-1,2,3,4-tetrahydro-isoquinolin-6-yl)-morpholin-4-yl-methanone], the Ki is 1800 nM.
In turn, `CC(C)(C)C1CCN(C(=O)c2ccc3c(c2)CCN(C2CCC2)C3)CC1` [Example 188, (4-tert-Butyl-piperidin-1-yl)-(2-cyclobutyl-1,2,3,4-tetrahydro-isoquinolin-6-yl)-methanone] registered an inhibitory constant (Ki) of 340 nM.
`O=C(c1ccc2c(c1)CCN(C1CCC1)C2)N1CCCN(C2CCC2)CC1` [Example 189, (4-Cyclobutyl-[1,4]diazepan-1-yl)-(2-cyclobutyl-1,2,3,4-tetrahydro-isoquinolin-6-yl)-methanone] gave an inhibition constant Ki of 1 nM.
